{"source": "patent US7012042B1", "about": "“Methods and products to protect against root intrusion and plant and root growth” (Growguard, LLC, Inc., priority 2002, dated 2006)", "key": {"plant root": {"system": "plant root", "settings": "cited from earlier work"}, "[1]": {"test": "Solubility of Trifluralin in methacrylate plasticizer/monomers", "assay_type": "physicochemical", "settings": "in ethyl methacrylate and lauryl methacrylate", "procedure": "A novel solution involving the polymerization of the plasticizer that remains within the fiber (FIG. 8) has been developed. Thus, a plasticizer is chosen that also is a monomer. It was determined that Trifluralin is quite soluble in ethyl methacrylate and lauryl methacrylate. […] Thus, technical feasibility is evident up to this point in the process."}}}
{"smiles": "CCCN(CCC)c1c([N+](=O)[O-])cc(C(F)(F)F)cc1[N+](=O)[O-]", "note": "[Trifluralin]", "values": [{"measurement": "concentration highly effective in preventing root elongation", "setting": "plant root; 95% of the plants tested, prior efforts", "value": "2–5 ppm"}, {"measurement": "concentration required to inhibit root growth", "setting": "plant root; a few of the plants tested, prior efforts", "value": 10, "unit": "ppm"}, {"measurement": "concentration sufficient to inhibit root growth", "setting": "plant root; in gels and water-saturated soils adjacent to a pipe leakage area", "value": "5–10 ppm"}, {"measurement": "solubility", "setting": "[1]", "value": "quite soluble"}]}
